For one series, the system named is A2780 cells. The series is described as follows: Cytotoxicity A2780 (1st method), cell counting. To be noted: 24 h cell exposure, cells counted on day 7. The series is classed as cell-based, human. On the procedure:
A2780 (1st Method): A2780 cells were plated on day zero, and the complexes to be tested were added on day 3. The complex was removed on day 4 (i.e., 24 h cell exposure), and after growth in fresh medium in the absence of drug, the cells were counted on day 7. The complexes were stored in the dark at 277 K as a precaution against photochemical decomposition.

For series [1], the system named is A2780 (human ovarian carcinoma, ECACC 93112519). Description: Cytotoxicity A2780 (2nd method), sulforhodamine B. To be noted: 24 h exposure, then 96 h in fresh medium, SRB. The series is classed as cell-based. On the procedure: A2780 (2nd method) and A549: Cell line A2780 (human ovarian carcinoma, ECACC 93112519) was maintained in medium comprising RPMI-1640 (Sigma) with 5% Fetal Bovine Serum (Invitrogen), 2 mM L-Glutamine (Sigma) and 1% Penicillin/Streptomycin (Invitrogen), in T-75 flasks (Costar). Cells were passaged at approximately 75-90% confluence (1:8 dilution) using 0.25% Trypsin/EDTA (Invitrogen)
(§1) Both cell lines were incubated at 37° C., 5% CO2, in high humidity.
(§2) A2780 carcinoma cells were seeded (150 μL) into 96 well plates (Nunc Maxisorp) at 5000 (±10%) cells per well and incubated at 37° C., 5% CO2 in high humidity for 48 hours. A549 carcinoma cells were seeded (150 μL) into 96 well plates (Nunc Maxisorp) at 2000 (±10%) cells per well and incubated at 37° C., 5% CO2 in high humidity for 24 hours.
(§3) The compounds to be tested were solubilised by sonication in DMSO (Fisher Scientific) to provide 20 mM solutions. Compounds were serially diluted with DMSO before diluting in cell culture medium to give concentrations four-fold greater than the final concentrations required in the assay. The dilutions of compound in culture medium were added to the cell plates (50 μL) in triplicates to achieve final concentrations of 100 μM, 50 μM, 10 μM, 5 μM, 1 μM and 0.1 μM. The final DMSO concentration in each well was 0.5% (v/v). The plates were incubated for 24 hours at 37° C., 5% CO2, in high humidity
After 24 hours incubation, the cells were washed (200 μL) twice with sterile phosphate buffered Saline (Sigma) and the cell culture medium replenished (200 μL). Plates were incubated at 37° C., 5% CO2, in high humidity for 96 hours. After the incubation surviving cells were fixed by the addition of 50% (w/v) Trichloroacetic acid (50 μL) and incubated at 4° C. for 1 hour. Plates were washed three times with excess tap water and air-dried. Cells were dyed by the addition of (100 μL) 0.4% sulforhodamine B (Sigma) solution to the plates followed by five washes (200 μl) with 1% acetic acid solution to remove excess dye before air-drying. Dye was re-solubilised in (200 μL) 10 mM Tris buffer (Fisher Scientific) and the absorbance of each well read at both 565 nm and 690 nm using a BMG Fluorostar microplate reader. The reading at 690 nm was subtracted from the 565 nm reading, and the IC50 values determined by plotting the corrected absorbance value Vs. the compound concentration in the wells (XLfit version 4.0, ID Business Solutions Ltd). These are shown below in table 1

In series [2] the test system is A549 (human lung carcinoma, ECACC 86012804). The series is described as follows: Cytotoxicity A549, sulforhodamine B. To be noted: 24 h exposure, then 96 h in fresh medium, SRB. The series is classed as cell-based. On the procedure: Cell Line A549 (human lung carcinoma, ECACC 86012804) was maintained in medium comprising DMEM (Sigma) with 10% Fetal Bovine Serum (Invitrogen), 2 mM L-Glutamine (Invitrogen) and 1% Penicillin/Streptomycin (Invitrogen), in T-75 flasks (Costar). Cells were passaged at approximately 70-90% confluence (1:8 dilution) using 0.25% Trypsin/EDTA (Invitrogen).
as §1, §2, §3
After 24 hours incubation, the cells were washed (200 μL) twice with sterile phosphate buffered Saline (Sigma) and the cell culture medium replenished (200 μL). Plates were incubated at 37° C., 5% CO2, in high humidity for 96 hours. […] Dye was re-solubilised in (200 μL) 10 mM Tris buffer (Fisher Scientific) and the absorbance of each well read at both 565 nm and 690 nm using a BMG Fluorostar microplate reader. The reading at 690 nm was subtracted from the 565 nm reading, and the IC50 values determined by plotting the corrected absorbance value Vs. the compound concentration in the wells (XLfit version 4.0, ID Business Solutions Ltd). […]

Series [3] is described as follows: Hydrolysis kinetic studies by UV-Vis spectroscopy. Also noted: key: —: no hydrolysis observed by UV-VIS. The series is classed as physicochemical. Particulars: 298 K, methanol stock diluted with water. On the procedure: Ultraviolet and Visible (UV-Vis) Spectroscopy: A Perkin-Elmer Lambda-16 UV-Vis spectrophotometer was used with 1-cm path-length quartz cuvettes (0.5 mL) and a PTP1 Peltier temperature controller. Spectra were processed using UVWinlab software for Windows' 95.
Kinetic Studies: Aliquots of stock solutions of the complexes to be tested (4-10 mM) in methanol were diluted to 500 μL with water, and the absorbance at selected wavelengths (determined by hydrolysis in an 19:1 mixture of water and methanol—see table 1 (λ)) was then recorded at 6 to 20 second intervals depending on the hydrolysis rate of each complex at 298 K. The hydrolysis rate constant kH2O for each complex was determined by computer fit of the absorbance/time data for each complex to the first-order rate equation (eq. 1), A=C0+C1e^−kt (1) where C0 and C1 are computer-fitted constants, and A is the absorbance corresponding to time t, and the results are reported in table 1 as the half life (t1/2). Cytoxicity Studies

A word on the IC50: it is the concentration that inhibits the measured activity by half.

In the series with A2780 cells, `Cc1c(C)c(C)c(C)c(C)c1C.F[P-](F)(F)(F)(F)F.NCCN.[Cl][Ru+]` [Compound C2, [(η^6-C6(CH3)6)Ru(en)Cl][PF6], reference compound] came in with an IC50 of 9 µM.
“[(η^6-C6H5C6H5)Ru(en)N3][PF6] [Compound 1]”: the IC50 in the series with A2780 cells was 4 µM; in series [1], 14 µM; in series [2] it was 8.5 µM.
Take “[(η^6-C6(CH3)6)Ru(en)(SPh)][PF6] [Compound 4]”: the half-maximal inhibitory concentration (IC50) is 23 µM in the series with A2780 cells, 23 µM in series [1] and 38 µM in series [2]. The “t1/2 (hydrolysis), dash with footnote a” value in series [3] is recorded as “—^a”.
As to “[(η^6-C6(CH3)6)Ru(en)(3-methylpyridine)][PF6]2 [Compound 9]”, the IC50 (in the series with A2780 cells; in series [1]) was 50 µM in each case. For the same compound, the “t1/2 (hydrolysis), dash with footnote a” value in series [3] is “—^a”.
In series [1], “[(η^6-C6(CH3)6)Ru(en)(SCN)][PF6]2 [Compound 3]” came in with an IC50 of 24 µM.
Compound “[(η^6-C6(CH3)6)Ru(en)(p-cyanopyridine)][PF6]2 [Compound 8]” gave an IC50 in the series with A2780 cells of 6 µM.
In the case of “[(η^6-C6(CH3)6)Ru(en)(pyridine)][PF6]2 [Compound 2]”, in series [3], the “t1/2 (hydrolysis), dash with footnote a” value is given as “—^a”.
In the case of `F[P-](F)(F)(F)(F)F.NCCN.[Cl][Ru+].c1ccc(-c2ccccc2)cc1` [Compound C1, [(η^6-C6H5C6H5)Ru(en)Cl][PF6], reference compound], the IC50 came to 8 µM in the series on A2780 cells, 6.5 µM in series [1] and 11 µM in series [2].
For the compound “[(η^6-C6(CH3)6)Ru(en)(3,5-dichloropyridine)][PF6]2 [Compound 6]”, the IC50 in the series with A2780 cells is 23 µM; in series [1] it was 18 µM.

Values taken from patent publication US20080096846A1, “Arene Ruthenium (ll) Compounds And Their Use In Cancer Therapy” (priority 2004, published 2008).
